Measurements: ChEMBL document CHEMBL1201862, “PubChem BioAssay data set” (2004)
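All cell lines were grown in 96-well plates and treated with compound for 48 hours. Abbreviation: GI50, concentration required for 50% inhibition of growth.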 Activity calls are given as the source filed them. No stated cut-off is given here; in the data, active = GI50 up to about 1.1 µM and inactive = higher.

Legend:
Assay in all cases: inhibition of tumour cell growth, NCI panel, 48 h
[1] = system: SK-MEL-5
[2] = system: COLO 205
[3] = system: CCRF-CEM
[4] = system: ACHN
[5] = system: K562
[6] = system: RPMI-8226
[7] = system: MOLT-4
[8] = system: SK-OV-3
[9] = system: UACC-257
[10] = system: NCI-H226
[11] = system: SF-295
[12] = system: HOP-92
[13] = system: Malme-3M
[14] = system: OVCAR-4
[15] = system: BT-549
[16] = system: NCI-H460
[17] = system: U-251
[18] = system: NCI/ADR-RES
[19] = system: UACC-62
[20] = system: PC-3
[21] = system: HT-29
[22] = system: MDA-MB-435
[23] = system: OVCAR-5
[24] = system: OVCAR-8
[25] = system: KM12
[26] = system: MDA-N
[27] = system: Hs-578T
[28] = system: M14
[29] = system: HOP-62
[30] = system: SF-268
[31] = system: MCF7
[32] = system: UO-31
[33] = system: HCT-116
[34] = system: HCT-15
[35] = system: A498
[36] = system: RXF 393
[37] = system: MDA-MB-231
[38] = system: SN12C
[39] = system: SK-MEL-2
[40] = system: A549
[41] = system: SNB-75
[42] = system: T47D
[43] = system: NCI-H522
[44] = system: SR
[45] = system: SW-620
[46] = system: 786-0
[47] = system: SK-MEL-28
[48] = system: SF-539
[49] = system: LOX IMVI
[50] = system: DU-145
[51] = system: CAKI-1
[52] = system: OVCAR-3
[53] = system: TK-10
[54] = system: IGROV-1
[55] = system: NCI-H23
[56] = system: HL-60
[57] = system: SNB-19
[58] = system: EKVX

CN(C)CCCNc1ccnc2cc([N+](=O)[O-])ccc12
GI50 [1]: 11.9 µM (inactive)
GI50 [2]: 2.65 µM (inactive)
GI50 [3]: > 100 µM (inactive)
GI50 [4]: 19 µM (inactive)
GI50 [5]: > 100 µM (inactive)
GI50 [6]: 59.2 µM (inactive)
GI50 [7]: > 100 µM (inactive)
GI50 [8]: 21.2 µM (inactive)
GI50 [9]: 13.9 µM (inactive)
GI50 [10]: 14.9 µM (inactive)
GI50 [11]: 20.4 µM (inactive)
GI50 [12]: 3.38 µM (inactive)
GI50 [13]: 3.44 µM (inactive)
GI50 [14]: 3.35 µM (inactive)
GI50 [15]: 19.1 µM (inactive)
GI50 [16]: 4.97 µM (inactive)
GI50 [17]: 23.7 µM (inactive)
GI50 [18]: 20 µM (inactive)
GI50 [19]: 18.8 µM (inactive)
GI50 [20]: 14.1 µM (inactive)
GI50 [21]: 2.68 µM (inactive)
GI50 [22]: 14.8 µM (inactive)
GI50 [23]: 20.7 µM (inactive)
GI50 [24]: 13.9 µM (inactive)
GI50 [25]: 10.2 µM (inactive)
GI50 [26]: 12.1 µM (inactive)
GI50 [27]: 17.9 µM (inactive)
GI50 [28]: 12 µM (inactive)
GI50 [29]: 16 µM (inactive)
GI50 [30]: 21 µM (inactive)
GI50 [31]: 4.47 µM (inactive)
GI50 [32]: 16.9 µM (inactive)
GI50 [33]: 6.31 µM (inactive)
GI50 [34]: 12.1 µM
GI50 [35]: 17.2 µM (inactive)
GI50 [36]: 11.2 µM (inactive)
GI50 [37]: 13.3 µM (inactive)
GI50 [38]: 17.2 µM (inactive)
GI50 [39]: 14.5 µM (inactive)
GI50 [40]: 22.5 µM (inactive)
GI50 [41]: 23.3 µM (inactive)
GI50 [42]: 5.98 µM (inactive)
GI50 [43]: 3.6 µM (inactive)
GI50 [44]: > 100 µM (inactive)
GI50 [45]: 7.45 µM (inactive)
GI50 [46]: 10.4 µM (inactive)
GI50 [47]: 36.2 µM (inactive)
GI50 [48]: 16.3 µM (inactive)
GI50 [49]: 11.4 µM (inactive)
GI50 [50]: 27.8 µM (inactive)
GI50 [51]: 26.9 µM (inactive)
GI50 [52]: 5.11 µM (inactive)
GI50 [53]: 30.7 µM (inactive)
GI50 [54]: 4.06 µM (inactive)
GI50 [55]: 11.7 µM (inactive)

COc1cc(CCN)c(OC)c(OC)c1
GI50 [1]: 23.6 µM (inactive)
GI50 [2]: > 100 µM (inactive)
GI50 [3]: 34.8 µM (inactive)
GI50 [4]: > 100 µM (inactive)
GI50 [5]: 62.1 µM (inactive)
GI50 [6]: 93.3 µM (inactive)
GI50 [7]: > 100 µM (inactive)
GI50 [8]: > 100 µM (inactive)
GI50 [9]: > 100 µM (inactive)
GI50 [11]: > 100 µM (inactive)
GI50 [12]: 62.4 µM (inactive)
GI50 [13]: > 100 µM (inactive)
GI50 [14]: > 100 µM (inactive)
GI50 [15]: > 100 µM (inactive)
GI50 [16]: > 100 µM (inactive)
GI50 [17]: > 100 µM (inactive)
GI50 [18]: > 100 µM (inactive)
GI50 [19]: > 100 µM (inactive)
GI50 [20]: > 100 µM (inactive)
GI50 [21]: > 100 µM (inactive)
GI50 [22]: 24.8 µM (inactive)
GI50 [23]: > 100 µM (inactive)
GI50 [56]: 40.4 µM (inactive)
GI50 [57]: > 100 µM (inactive)
GI50 [24]: > 100 µM (inactive)
GI50 [25]: > 100 µM (inactive)
GI50 [26]: 39.2 µM (inactive)
GI50 [27]: > 100 µM (inactive)
GI50 [28]: 58.7 µM (inactive)
GI50 [29]: > 100 µM (inactive)
GI50 [30]: > 100 µM (inactive)
GI50 [31]: 42.3 µM (inactive)
GI50 [32]: > 100 µM (inactive)
GI50 [33]: 44.4 µM (inactive)
GI50 [34]: > 100 µM
GI50 [35]: > 100 µM (inactive)
GI50 [36]: > 100 µM (inactive)
GI50 [37]: > 100 µM (inactive)
GI50 [38]: > 100 µM (inactive)
GI50 [58]: > 100 µM (inactive)
GI50 [39]: > 100 µM (inactive)
GI50 [40]: > 100 µM (inactive)
GI50 [41]: > 100 µM (inactive)
GI50 [42]: > 100 µM (inactive)
GI50 [43]: > 100 µM (inactive)
GI50 [44]: 50.8 µM (inactive)
GI50 [45]: 36.2 µM (inactive)
GI50 [46]: > 100 µM (inactive)
GI50 [47]: > 100 µM (inactive)
GI50 [49]: > 100 µM (inactive)
GI50 [50]: > 100 µM (inactive)
GI50 [51]: > 100 µM (inactive)
GI50 [52]: > 100 µM (inactive)
GI50 [53]: > 100 µM (inactive)
GI50 [54]: > 100 µM (inactive)
GI50 [55]: > 100 µM (inactive)
